This note sets out measurements from ChEMBL document CHEMBL1134197, “A series of quinoline analogues as potent inhibitors of C. albicans prolyl tRNA synthetase” (Bioorg Med Chem Lett, 2001).

Converted amounts (≈) assume the structure as drawn.

The target of assay [1] is T1, Proline--tRNA ligase, cytoplasmic (Candida albicans, UniProt P78600).
T1 sequence (P78600 whole entry): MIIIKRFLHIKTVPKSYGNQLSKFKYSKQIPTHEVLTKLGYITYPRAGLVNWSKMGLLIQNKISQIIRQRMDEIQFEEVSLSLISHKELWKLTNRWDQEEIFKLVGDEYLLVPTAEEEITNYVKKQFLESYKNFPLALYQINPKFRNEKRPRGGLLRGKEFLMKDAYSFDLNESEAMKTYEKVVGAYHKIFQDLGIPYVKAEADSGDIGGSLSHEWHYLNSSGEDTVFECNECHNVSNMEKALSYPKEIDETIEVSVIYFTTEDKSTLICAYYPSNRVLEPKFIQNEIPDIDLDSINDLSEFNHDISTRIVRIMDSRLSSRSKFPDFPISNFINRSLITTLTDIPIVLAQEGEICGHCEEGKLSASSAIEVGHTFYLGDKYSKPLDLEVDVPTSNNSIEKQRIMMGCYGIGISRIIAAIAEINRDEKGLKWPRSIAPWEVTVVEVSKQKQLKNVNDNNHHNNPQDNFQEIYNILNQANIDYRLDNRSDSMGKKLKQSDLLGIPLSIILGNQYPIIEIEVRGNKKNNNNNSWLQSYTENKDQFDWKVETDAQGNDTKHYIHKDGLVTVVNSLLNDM
In words: Aminoacylation activity against Candida albicans prolyl-tRNA synthetase.

Assay [2] concerns the target Bifunctional glutamate/proline--tRNA ligase (Homo sapiens, UniProt P07814). As to the kind of experiment: Aminoacylation activity against human prolyl-tRNA synthetase.
Assay [3] can be described thus: Minimum inhibitory concentration (MIC) against Candida albicans (has cellular activity). In kind it is functional.
For assay [4], the system named is Candida albicans. As to the kind of experiment: Compound was evaluated for the minimum inhibitory concentration (MIC) against Candida albicans (no cell activity). Type of assay: functional.
The nature of assay [5]: Competitive inhibition against Candida albicans prolyl-tRNA synthetase (Ca. ProRS) with respect to ATP.
Assay [6] can be described thus: Non-competitive inhibition against Candida albicans prolyl-tRNA synthetase (Ca. ProRS) with respect to proline.

Chain of Bifunctional glutamate/proline--tRNA ligase (P07814 whole entry): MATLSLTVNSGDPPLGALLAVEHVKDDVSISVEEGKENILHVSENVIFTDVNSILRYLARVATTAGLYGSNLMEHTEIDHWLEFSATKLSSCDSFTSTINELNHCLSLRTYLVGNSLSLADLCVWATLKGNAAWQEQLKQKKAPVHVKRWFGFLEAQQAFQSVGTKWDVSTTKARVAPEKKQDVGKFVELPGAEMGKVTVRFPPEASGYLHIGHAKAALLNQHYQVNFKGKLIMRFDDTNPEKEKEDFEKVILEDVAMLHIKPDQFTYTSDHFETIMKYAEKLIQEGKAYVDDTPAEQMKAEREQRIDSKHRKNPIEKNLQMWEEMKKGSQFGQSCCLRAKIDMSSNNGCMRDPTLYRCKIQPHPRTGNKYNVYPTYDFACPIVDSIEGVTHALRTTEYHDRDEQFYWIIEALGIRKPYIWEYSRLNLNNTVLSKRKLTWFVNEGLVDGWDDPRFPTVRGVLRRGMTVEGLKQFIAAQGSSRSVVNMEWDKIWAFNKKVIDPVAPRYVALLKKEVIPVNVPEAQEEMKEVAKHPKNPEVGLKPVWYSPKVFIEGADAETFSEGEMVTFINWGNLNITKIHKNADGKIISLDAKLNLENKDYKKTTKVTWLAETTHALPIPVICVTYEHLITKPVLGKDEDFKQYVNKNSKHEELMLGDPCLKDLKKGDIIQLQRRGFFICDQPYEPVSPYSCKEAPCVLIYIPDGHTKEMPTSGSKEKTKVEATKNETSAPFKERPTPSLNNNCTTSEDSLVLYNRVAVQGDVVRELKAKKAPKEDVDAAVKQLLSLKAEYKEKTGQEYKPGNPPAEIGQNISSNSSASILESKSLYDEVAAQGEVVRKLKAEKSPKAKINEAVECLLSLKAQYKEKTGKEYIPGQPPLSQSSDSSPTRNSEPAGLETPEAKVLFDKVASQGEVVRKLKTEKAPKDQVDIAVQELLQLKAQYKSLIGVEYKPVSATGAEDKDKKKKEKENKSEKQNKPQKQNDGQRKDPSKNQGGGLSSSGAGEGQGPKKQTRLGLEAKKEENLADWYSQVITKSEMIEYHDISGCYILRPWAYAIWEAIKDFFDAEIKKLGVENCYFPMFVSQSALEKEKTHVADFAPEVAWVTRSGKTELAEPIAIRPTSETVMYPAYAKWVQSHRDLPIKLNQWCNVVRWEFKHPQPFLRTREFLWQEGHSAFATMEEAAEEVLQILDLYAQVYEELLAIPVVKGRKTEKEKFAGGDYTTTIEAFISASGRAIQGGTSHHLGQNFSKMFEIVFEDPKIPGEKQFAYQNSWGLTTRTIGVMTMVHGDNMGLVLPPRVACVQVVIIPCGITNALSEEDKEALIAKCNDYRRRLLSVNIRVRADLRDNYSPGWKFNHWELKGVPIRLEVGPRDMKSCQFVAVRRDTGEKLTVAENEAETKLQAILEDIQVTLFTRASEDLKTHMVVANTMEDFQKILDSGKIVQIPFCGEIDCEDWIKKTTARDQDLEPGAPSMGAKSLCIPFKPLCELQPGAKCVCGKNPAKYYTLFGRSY

For `COc1ccc(-c2cc(C(=O)O)c3ccccc3n2)cc1`, the IC50 in assay [1] and in assay [2] was more than 100 µM each time.

As for `O=C(O)c1cc(-c2ccc(Br)cc2)nc2c(C(F)(F)F)cc(Br)cc12`, the concentration for half-maximal inhibition (IC50) in assay [1] came out at 0.22 µM; in assay [2] it was 56 µM.

For the molecule `O=C(O)c1cc(-c2ccc(Cl)c(Cl)c2)nc2ccccc12`, the half-maximal inhibitory concentration (IC50) in assay [1] was 19 µM; in assay [2], more than 100 µM.

For `Cc1cc(Cl)cc2c(C(=O)OCc3ccco3)cc(-c3ccc(Br)cc3)nc12`, the IC50 is 0.07 µM in assay [1] and more than 100 µM in assay [2].

In turn, `Cc1cc(Cl)cc2c(COS(N)(=O)=O)cc(-c3ccc(Br)cc3)nc12` returned a half-maximal inhibitory concentration (IC50) in assay [1] of 2.4 µM.

For `O=C(O)/C=C/c1ccc2nc(-c3ccc(Br)cc3)cc(C(=O)O)c2c1`, the IC50 was determined as 1.3 µM in assay [1] and 80 µM in assay [2].

For the molecule `O=C(O)c1cc(-c2ccc(Br)cc2)nc2c(CO)cc(Cl)cc12`, the half-inhibitory concentration (IC50) is 1.5 µM in assay [1] and more than 100 µM in assay [2].

As to `Cc1cc(Cl)c2nc(-c3ccc(Br)cc3)cc(C(=O)O)c2c1`, the half-maximal inhibitory concentration (IC50) is 0.025 µM in assay [1] and more than 20 µM in assay [2].

In the case of `O=C(O)c1cc(-c2ccc(Br)cc2)nc2ccc(-c3ccc(O)cc3)cc12`, the figures for the 50% inhibitory concentration (IC50) in assay [1] and in assay [2] were 0.35 µM and 35 µM, respectively.

`O=C(O)c1cc(-c2ccco2)nc2ccccc12`: the IC50 in assay [1] and in assay [2] was more than 100 µM each time.

Turning to `Cc1cc(C)c2nc(-c3ccc(Br)cc3)cc(C(=O)O)c2c1`, the concentration for half-maximal inhibition (IC50) in assay [1] is 25 µM; in assay [2], more than 100 µM.

Regarding `Cc1cc(Cl)cc2c(-c3nn[nH]n3)cc(-c3ccc(Br)cc3)nc12`, the half-maximal inhibitory concentration (IC50) in assay [1] is 0.03 µM; in assay [2], more than 100 µM.

Take `Cc1cc(Cl)cc2nc(-c3ccc(Br)cc3)cc(C(=O)O)c12`: the figures for the IC50 in assay [1] and in assay [2] were 1.5 µM and more than 100 µM, respectively.

`O=C(O)c1cc(-c2ccc(C(F)(F)F)cc2)nc2ccccc12`: the half-inhibitory concentration (IC50) in assay [1] and in assay [2] was more than 100 µM in each case.

For `O=C(O)c1cc(-c2ccc(Br)cc2)nc2ccc(S(=O)(=O)O)cc12`, the IC50 in assay [1] is 15 µM; in assay [2], more than 100 µM.

`O=C(O)c1cc(-c2ccc(Cl)s2)nc2ccccc12`: the 50% inhibitory concentration (IC50) in assay [1] is 32 µM; in assay [2], more than 100 µM.

`O=C(O)c1cc(-c2ccc(Br)cc2)nc2ccc(Cl)cc12`: the results for the 50% inhibitory concentration (IC50) in assay [1] and in assay [2] were 0.026 µM and more than 20 µM, respectively.

On to `O=C(O)c1cc(-c2ccc(Br)cc2)nc2ccc(OC(F)(F)F)cc12`, for which the IC50 is 0.053 µM in assay [1] and more than 100 µM in assay [2].

Consider `O=C(O)c1cc(-c2ccc(Br)cc2)nc2ccc(Br)cc12`, for which the IC50 in assay [1] is 0.025 µM; in assay [2] it was more than 20 µM.

With `Cc1cc(Cl)cc2c(C(=O)OCc3ccc(-c4ccccc4)cc3)cc(-c3ccc(Br)cc3)nc12`, the figures for the half-maximal inhibitory concentration (IC50) in assay [1] and in assay [2] were 8.8 µM and more than 100 µM, respectively.

Regarding `O=C(O)c1cc(-c2ccc3ccccc3c2)nc2ccccc12`, the values for the concentration for half-maximal inhibition (IC50) in assay [1] and in assay [2] were 3.6 µM and more than 100 µM, respectively.

Regarding `Cc1cc(Cl)cc2c(C(=O)OCc3ccc(Cl)c(Cl)c3)cc(-c3ccc(Br)cc3)nc12`, the results for the IC50 in assay [1] and in assay [2] were 0.02 µM and more than 100 µM, respectively.

As to `Cc1c(F)ccc2c(C(=O)O)cc(-c3ccc(Br)cc3)nc12`, the concentration for half-maximal inhibition (IC50) in assay [1] is 0.12 µM; in assay [2], 60 µM.

For `Cc1c(Br)ccc2c(C(=O)O)cc(-c3ccc(Br)cc3)nc12`, the 50% inhibitory concentration (IC50) in assay [1] is 0.15 µM; in assay [2] it was 70 µM. In assay [3], the minimum inhibitory concentration (MIC) was 25 µg/mL (≈ 59.4 µM).

With `Nc1ccc2nc(-c3ccc(Br)cc3)cc(C(=O)O)c2c1`, the IC50 in assay [1] stood at 3.3 µM; in assay [2], 95 µM.

Turning to `Cc1cc(Cl)cc2c(C(=O)O)cc(-c3ccc(Br)cc3)nc12`, the IC50 is 0.005 µM in assay [1] and more than 20 µM in assay [2]. In assay [4], this molecule showed an MIC of more than 100 µg/mL. The inhibition constant Ki in assay [5] came to 0.0051 µM; in assay [6], 0.015 µM.

For `O=C(O)c1cc(-c2ccc(Br)cc2)nc2ccc(I)cc12`, the results for the IC50 in assay [1] and in assay [2] were 0.019 µM and more than 100 µM, respectively.

In the case of `O=C(O)c1cc(-c2ccc(Br)cc2)nc2cc(Cl)cc(Cl)c12`, the figures for the IC50 in assay [1] and in assay [2] were 0.14 µM and more than 100 µM, respectively.

Regarding `O=C(O)c1cc(-c2ccncc2)nc2ccccc12`, the IC50 in assay [1] and in assay [2] was more than 100 µM in each case.

Consider `COC(=O)C(Cc1ccccc1)NC(=O)c1cc(-c2ccc(Br)cc2)nc2c(C)cc(Cl)cc12` (configuration not stated), for which the 50% inhibitory concentration (IC50) in assay [1] is 5.7 µM; in assay [2], more than 100 µM.

For the molecule `O=C(O)c1cc(-c2ccc(Br)cc2)nc2ccccc12`, the IC50 in assay [1] was 0.5 µM; in assay [2] it was more than 100 µM.

As to `O=C(O)c1cc(-c2ccccc2)nc2ccccc12` [CINCHOPHEN], the IC50 in assay [1] and in assay [2] was more than 100 µM throughout.

The IC50 is the concentration that inhibits the measured activity by half. As usually defined, the MIC is the lowest concentration found to suppress growth. Read a low MIC as a more susceptible organism. One may read the Ki as a measure of affinity in units of concentration, obtained from inhibition or displacement.
